Here are results for 2 compounds from ChEMBL document CHEMBL5653615 (J Biol Chem, 2013).

The target of experiment [1] is Aurora kinase B (Homo sapiens) (UniProt Q96GD4). As to the kind of experiment: Inhibition of human Aurora B at 500 nM by HotSpot assay relative to control.
For experiment [2], the target named is Calcium/calmodulin-dependent protein kinase type II subunit beta (Homo sapiens) (UniProt Q13554). As to the kind of experiment: Inhibition of human CAMK2b at 500 nM by HotSpot assay relative to control.
Experiment [3] has as its target CDK1/Cyclin A (Homo sapiens) (UniProt P06493+P20248). As to the kind of experiment: Inhibition of human CDK1/cyclin A at 500 nM by HotSpot assay relative to control. It is filed as protein-complex assay.
In experiment [4] the target is CDK3/Cyclin E (Homo sapiens) (UniProt P24864+Q00526). As to the kind of experiment: Inhibition of human CDK3/cyclin E at 500 nM by HotSpot assay relative to control. It is filed as protein-complex assay.
Experiment [5] concerns the target Serine/threonine-protein kinase Chk2 (Homo sapiens) (UniProt O96017). As to the kind of experiment: Inhibition of human CHK2 at 500 nM by HotSpot assay relative to control.
Experiment [6] has as its target Casein kinase I isoform epsilon (Homo sapiens) (UniProt P49674). Nature of the experiment: Inhibition of human CK1epsilon at 500 nM by HotSpot assay relative to control.
In experiment [7] the target is Casein kinase I isoform gamma-2 (Homo sapiens) (UniProt P78368). Nature of the experiment: Inhibition of human CK1g2 at 500 nM by HotSpot assay relative to control.
Experiment [8] addresses Dual specificity protein kinase CLK1 (Homo sapiens) (UniProt P49759). As to the kind of experiment: Inhibition of human CLK1 at 500 nM by HotSpot assay relative to control.
Experiment [9] concerns the target T1, Serine/threonine-protein kinase 17A (Homo sapiens) (UniProt Q9UEE5).
T1 sequence (whole entry): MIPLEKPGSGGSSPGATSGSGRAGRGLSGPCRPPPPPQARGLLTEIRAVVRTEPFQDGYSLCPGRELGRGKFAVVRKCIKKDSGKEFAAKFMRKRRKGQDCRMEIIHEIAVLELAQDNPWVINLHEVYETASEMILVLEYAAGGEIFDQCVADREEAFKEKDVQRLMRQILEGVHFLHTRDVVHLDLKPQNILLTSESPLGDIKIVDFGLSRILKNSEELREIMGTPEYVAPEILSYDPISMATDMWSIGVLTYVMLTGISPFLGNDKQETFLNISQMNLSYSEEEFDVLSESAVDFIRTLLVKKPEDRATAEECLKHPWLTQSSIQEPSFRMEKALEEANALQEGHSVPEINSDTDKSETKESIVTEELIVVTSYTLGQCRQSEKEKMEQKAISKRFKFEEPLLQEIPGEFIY
Nature of the experiment: Inhibition of human DRAK1 at 500 nM by HotSpot assay relative to control.

In experiment [10] the target is Ephrin type-A receptor 4 (Homo sapiens) (UniProt P54764). Nature of the experiment: Inhibition of human EPHA4 at 500 nM by HotSpot assay relative to control.
The target in experiment [11] is Ephrin type-A receptor 7 (Homo sapiens) (UniProt Q15375). As to the kind of experiment: Inhibition of human EPHA7 at 500 nM by HotSpot assay relative to control.
In experiment [12] the target is Fibroblast growth factor receptor 4 (Homo sapiens) (UniProt P22455). As to the kind of experiment: Inhibition of human FGFR4 at 500 nM by HotSpot assay relative to control.
The target in experiment [13] is Vascular endothelial growth factor receptor 2 (Homo sapiens) (UniProt P35968). As to the kind of experiment: Inhibition of human KDR at 500 nM by HotSpot assay relative to control.
Experiment [14] concerns the target Tyrosine-protein kinase Lyn (Homo sapiens) (UniProt P07948). As to the kind of experiment: Inhibition of human LYN B at 500 nM by HotSpot assay relative to control.
Experiment [15] concerns the target Serine/threonine-protein kinase MRCK alpha (Homo sapiens) (UniProt Q5VT25). Nature of the experiment: Inhibition of human CDC42BPA at 500 nM by HotSpot assay relative to control.
For experiment [16], the target named is Mitogen-activated protein kinase 14 (Homo sapiens) (UniProt Q16539). As to the kind of experiment: Inhibition of human MAPK14 at 500 nM by HotSpot assay relative to control.
The target in experiment [17] is Serine/threonine-protein kinase PAK 1 (Homo sapiens) (UniProt Q13153). As to the kind of experiment: Inhibition of human PAK1 at 500 nM by HotSpot assay relative to control.
Experiment [18] addresses Serine/threonine-protein kinase pim-3 (Homo sapiens) (UniProt Q86V86). As to the kind of experiment: Inhibition of human PIM3 at 500 nM by HotSpot assay relative to control.
For experiment [19], the target named is SRSF protein kinase 2 (Homo sapiens) (UniProt P78362). Nature of the experiment: Inhibition of human SRPK2 at 500 nM by HotSpot assay relative to control.
Experiment [20] concerns the target T2, Tyrosine-protein kinase receptor TYRO3 (Homo sapiens) (UniProt Q06418).
T2 sequence (whole entry): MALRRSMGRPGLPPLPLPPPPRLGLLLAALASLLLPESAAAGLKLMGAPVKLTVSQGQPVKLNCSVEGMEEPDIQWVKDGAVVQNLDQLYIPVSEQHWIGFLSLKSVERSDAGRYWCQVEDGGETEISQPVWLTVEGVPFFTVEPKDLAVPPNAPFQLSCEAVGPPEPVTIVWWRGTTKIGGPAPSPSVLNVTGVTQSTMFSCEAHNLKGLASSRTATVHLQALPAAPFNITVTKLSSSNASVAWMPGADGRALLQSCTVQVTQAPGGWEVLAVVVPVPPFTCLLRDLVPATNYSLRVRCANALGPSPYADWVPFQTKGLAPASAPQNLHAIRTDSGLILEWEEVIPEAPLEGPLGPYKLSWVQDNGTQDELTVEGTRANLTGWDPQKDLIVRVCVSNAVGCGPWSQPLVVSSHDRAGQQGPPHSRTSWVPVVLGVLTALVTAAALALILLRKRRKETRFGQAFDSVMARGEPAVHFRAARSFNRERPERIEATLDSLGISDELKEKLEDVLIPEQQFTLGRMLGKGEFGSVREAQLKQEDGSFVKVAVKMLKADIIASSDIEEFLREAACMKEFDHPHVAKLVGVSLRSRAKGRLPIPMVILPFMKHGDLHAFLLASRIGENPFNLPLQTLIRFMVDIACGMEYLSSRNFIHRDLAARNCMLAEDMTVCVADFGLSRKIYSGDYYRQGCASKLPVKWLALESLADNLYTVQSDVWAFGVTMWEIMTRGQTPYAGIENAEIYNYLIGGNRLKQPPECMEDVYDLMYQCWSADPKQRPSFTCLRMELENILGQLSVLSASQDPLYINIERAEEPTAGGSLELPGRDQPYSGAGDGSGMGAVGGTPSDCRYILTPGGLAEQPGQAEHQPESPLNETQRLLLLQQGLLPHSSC
As to the kind of experiment: Inhibition of human SKY at 500 nM by HotSpot assay relative to control.

The structures appear in SMILES notation.

CDK3/Cyclin E (Homo sapiens), sequence (P24864 whole entry, looked up): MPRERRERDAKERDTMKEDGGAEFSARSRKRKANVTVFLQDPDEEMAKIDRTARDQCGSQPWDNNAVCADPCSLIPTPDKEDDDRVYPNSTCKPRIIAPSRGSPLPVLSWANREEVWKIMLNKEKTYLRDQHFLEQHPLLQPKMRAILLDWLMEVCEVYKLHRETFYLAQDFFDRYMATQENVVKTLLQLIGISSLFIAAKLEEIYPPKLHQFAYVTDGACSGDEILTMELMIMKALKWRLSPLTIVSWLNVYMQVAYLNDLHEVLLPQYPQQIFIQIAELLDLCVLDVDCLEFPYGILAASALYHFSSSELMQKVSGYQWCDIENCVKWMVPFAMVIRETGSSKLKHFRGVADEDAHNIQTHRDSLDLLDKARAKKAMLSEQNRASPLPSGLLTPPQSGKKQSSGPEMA
CDK3/Cyclin E (Homo sapiens), sequence (Q00526 whole entry, looked up): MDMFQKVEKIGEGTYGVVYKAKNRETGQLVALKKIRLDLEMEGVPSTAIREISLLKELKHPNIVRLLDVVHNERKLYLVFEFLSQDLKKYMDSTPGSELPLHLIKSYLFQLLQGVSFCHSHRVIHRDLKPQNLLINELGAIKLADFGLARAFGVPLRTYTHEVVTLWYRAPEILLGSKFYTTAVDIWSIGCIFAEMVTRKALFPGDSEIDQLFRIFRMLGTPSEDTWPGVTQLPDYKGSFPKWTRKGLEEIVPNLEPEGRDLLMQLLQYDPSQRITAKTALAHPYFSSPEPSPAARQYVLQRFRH
Serine/threonine-protein kinase MRCK alpha (Homo sapiens), sequence (Q5VT25 whole entry): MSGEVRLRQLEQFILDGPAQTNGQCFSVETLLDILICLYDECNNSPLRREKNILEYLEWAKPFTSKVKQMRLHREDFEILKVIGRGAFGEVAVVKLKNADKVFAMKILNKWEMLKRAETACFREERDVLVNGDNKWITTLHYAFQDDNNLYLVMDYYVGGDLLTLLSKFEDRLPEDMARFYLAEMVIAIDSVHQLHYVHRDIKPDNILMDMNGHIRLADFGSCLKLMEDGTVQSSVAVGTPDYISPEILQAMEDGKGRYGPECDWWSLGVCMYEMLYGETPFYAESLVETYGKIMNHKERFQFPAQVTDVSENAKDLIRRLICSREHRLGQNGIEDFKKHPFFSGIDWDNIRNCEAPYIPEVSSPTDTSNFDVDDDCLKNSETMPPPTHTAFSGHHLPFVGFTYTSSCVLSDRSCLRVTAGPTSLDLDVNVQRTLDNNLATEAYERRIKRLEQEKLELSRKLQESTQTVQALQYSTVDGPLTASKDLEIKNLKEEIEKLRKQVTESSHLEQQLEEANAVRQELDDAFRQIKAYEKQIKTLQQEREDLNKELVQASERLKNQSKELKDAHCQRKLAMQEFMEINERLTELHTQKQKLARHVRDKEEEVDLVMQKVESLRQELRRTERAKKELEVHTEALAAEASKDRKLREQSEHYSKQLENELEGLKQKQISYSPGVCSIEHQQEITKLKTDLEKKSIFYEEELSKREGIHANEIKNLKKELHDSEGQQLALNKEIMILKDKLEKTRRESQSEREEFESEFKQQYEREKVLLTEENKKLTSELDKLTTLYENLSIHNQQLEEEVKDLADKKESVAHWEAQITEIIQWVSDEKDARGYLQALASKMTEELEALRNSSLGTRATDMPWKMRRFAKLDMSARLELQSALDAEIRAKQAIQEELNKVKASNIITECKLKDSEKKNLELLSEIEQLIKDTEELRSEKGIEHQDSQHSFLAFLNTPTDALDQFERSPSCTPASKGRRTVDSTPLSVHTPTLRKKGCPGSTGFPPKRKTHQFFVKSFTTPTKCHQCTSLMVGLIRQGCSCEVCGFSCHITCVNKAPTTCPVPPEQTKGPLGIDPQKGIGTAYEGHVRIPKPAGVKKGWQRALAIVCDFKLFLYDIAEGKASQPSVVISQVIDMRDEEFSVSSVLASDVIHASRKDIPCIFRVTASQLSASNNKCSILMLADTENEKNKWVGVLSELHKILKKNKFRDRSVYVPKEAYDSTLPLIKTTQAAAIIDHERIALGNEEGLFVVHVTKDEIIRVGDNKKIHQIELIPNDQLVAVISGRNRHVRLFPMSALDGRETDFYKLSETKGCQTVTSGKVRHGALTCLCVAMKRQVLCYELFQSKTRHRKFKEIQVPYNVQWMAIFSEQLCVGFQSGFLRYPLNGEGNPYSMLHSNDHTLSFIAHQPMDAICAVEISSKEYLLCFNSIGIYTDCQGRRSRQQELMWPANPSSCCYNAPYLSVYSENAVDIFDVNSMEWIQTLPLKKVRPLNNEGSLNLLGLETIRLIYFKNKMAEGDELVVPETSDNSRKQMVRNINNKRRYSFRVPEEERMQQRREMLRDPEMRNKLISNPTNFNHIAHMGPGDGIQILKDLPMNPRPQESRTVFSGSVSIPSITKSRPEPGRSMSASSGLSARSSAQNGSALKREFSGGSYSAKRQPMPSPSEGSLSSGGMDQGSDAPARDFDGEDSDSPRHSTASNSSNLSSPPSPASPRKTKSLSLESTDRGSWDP
Serine/threonine-protein kinase PAK 1 (Homo sapiens), sequence (Q13153 whole entry): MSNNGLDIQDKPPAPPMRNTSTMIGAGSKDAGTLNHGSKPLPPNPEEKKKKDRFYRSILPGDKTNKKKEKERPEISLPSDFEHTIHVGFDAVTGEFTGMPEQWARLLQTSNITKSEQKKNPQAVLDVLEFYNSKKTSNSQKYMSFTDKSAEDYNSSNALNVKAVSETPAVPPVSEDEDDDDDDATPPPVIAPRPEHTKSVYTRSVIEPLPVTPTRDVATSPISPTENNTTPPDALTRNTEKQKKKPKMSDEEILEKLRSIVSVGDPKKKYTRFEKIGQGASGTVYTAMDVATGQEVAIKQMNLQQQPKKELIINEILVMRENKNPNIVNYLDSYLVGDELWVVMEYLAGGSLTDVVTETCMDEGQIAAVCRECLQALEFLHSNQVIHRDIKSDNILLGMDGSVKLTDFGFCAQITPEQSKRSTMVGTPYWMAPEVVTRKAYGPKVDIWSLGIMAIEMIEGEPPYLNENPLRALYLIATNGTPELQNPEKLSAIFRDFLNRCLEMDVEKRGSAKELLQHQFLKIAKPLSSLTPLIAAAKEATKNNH
Dual specificity protein kinase CLK1 (Homo sapiens), sequence (P49759 whole entry, looked up): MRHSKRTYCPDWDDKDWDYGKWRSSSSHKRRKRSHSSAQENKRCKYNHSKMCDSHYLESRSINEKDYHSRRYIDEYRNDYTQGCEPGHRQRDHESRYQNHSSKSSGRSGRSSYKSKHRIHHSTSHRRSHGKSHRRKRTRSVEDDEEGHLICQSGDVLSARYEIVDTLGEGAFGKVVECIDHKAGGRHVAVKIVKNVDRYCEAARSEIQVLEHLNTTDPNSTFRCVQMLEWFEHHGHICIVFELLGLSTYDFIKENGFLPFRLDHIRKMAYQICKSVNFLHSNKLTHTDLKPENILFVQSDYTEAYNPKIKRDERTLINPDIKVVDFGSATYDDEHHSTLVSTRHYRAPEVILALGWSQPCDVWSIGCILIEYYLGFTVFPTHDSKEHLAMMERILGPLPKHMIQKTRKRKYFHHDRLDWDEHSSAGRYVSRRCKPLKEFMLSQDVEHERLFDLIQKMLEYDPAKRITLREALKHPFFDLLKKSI
Casein kinase I isoform gamma-2 (Homo sapiens), sequence (P78368 whole entry, looked up, canonical isoform): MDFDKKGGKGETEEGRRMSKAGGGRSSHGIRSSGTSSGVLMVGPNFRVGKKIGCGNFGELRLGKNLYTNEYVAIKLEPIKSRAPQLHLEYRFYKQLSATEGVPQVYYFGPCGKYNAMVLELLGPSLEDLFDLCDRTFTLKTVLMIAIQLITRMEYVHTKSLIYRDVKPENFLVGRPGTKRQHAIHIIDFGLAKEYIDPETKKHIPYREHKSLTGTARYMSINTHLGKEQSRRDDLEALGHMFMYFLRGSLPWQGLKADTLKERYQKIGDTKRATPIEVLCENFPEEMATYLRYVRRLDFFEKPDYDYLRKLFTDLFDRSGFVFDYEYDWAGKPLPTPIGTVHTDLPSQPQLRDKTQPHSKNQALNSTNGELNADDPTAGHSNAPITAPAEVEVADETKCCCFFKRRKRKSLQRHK
Fibroblast growth factor receptor 4 (Homo sapiens), sequence (P22455 22-802 limits assumed): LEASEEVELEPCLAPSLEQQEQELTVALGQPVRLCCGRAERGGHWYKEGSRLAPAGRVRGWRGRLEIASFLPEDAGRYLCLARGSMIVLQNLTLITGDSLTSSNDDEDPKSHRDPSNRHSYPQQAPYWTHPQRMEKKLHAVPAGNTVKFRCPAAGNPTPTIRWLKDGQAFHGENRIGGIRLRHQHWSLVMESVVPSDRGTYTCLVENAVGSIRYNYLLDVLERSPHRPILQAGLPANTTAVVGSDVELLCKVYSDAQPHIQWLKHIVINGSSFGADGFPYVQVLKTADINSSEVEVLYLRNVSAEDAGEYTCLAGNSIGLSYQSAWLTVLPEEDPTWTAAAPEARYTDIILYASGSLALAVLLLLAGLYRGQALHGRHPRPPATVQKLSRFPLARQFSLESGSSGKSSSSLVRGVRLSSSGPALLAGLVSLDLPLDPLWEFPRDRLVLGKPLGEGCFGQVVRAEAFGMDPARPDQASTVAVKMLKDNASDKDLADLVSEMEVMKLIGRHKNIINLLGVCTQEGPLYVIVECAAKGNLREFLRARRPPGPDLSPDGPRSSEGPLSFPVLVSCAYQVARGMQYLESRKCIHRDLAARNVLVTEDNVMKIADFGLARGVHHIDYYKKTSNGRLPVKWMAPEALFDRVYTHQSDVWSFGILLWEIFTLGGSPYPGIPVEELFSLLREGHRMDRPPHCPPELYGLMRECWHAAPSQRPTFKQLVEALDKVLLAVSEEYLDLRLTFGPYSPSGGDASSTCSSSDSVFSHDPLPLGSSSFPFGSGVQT

For the compound `Nc1n[nH]c2nnc(-c3c(-c4ccccc4)nn4ccccc34)cc12`, the inhibition in experiment [1] is 3.24%; in experiment [2] it was -2.4%; in experiment [3], -0.55%; in experiment [4] it was 3.23%; in [5], 2.97%; in experiment [6] it was 19.1%. In addition, the inhibition is -9.31% in [7]; -8.27% in experiment [8]; 0.09% in experiment [9]; 14.1% in experiment [10]; 0.55% in experiment [11]; -3.98% in [12]. In addition, the inhibition in experiment [13] is -1.19%; in experiment [14], 2.89%; in experiment [15], 10.3%; in experiment [16], 5.42%; in [17], 8.08%; in experiment [18], -0.43%. For the same compound, the inhibition in experiment [19] worked out at 26.2%; in experiment [20] it was 2.41%.

In the case of `Oc1n[nH]c2nnc(-c3c(-c4ccccc4)nn4ccccc34)cc12`, the inhibition in experiment [1] is 2.45%; in experiment [2], -1.77%; in experiment [3] it was 0.95%; in [4] it was 1.33%; in experiment [5] it was 1.86%; in [6], 0.54%. Also, the inhibition was 3.49% in experiment [7]; -5.95% in [8]; -1.05% in [9]; -8.13% in experiment [10]; 0.96% in experiment [11]; -3.29% in experiment [12]. For the same compound, the inhibition in experiment [13] was -5.2%; in experiment [14], 2.89%; in [15], 6.74%; in experiment [16] it was -1.15%; in experiment [17], 7.2%; in experiment [18], -0.71%. Besides, the inhibition in experiment [19] turned out to be 0.47%; in experiment [20], 10.1%.

As a reminder, the inhibition is the drop in the measured response relative to a control, in per cent.
